These results are taken from US20100056627A1, “PHARMACEUTICAL COMPOSITIONS OF ALKYL GALLATES” (priority 2006, published 2010).

The test system of assay [1] is MRSA COL strain. In words: Time required for killing bacteria, octyl gallate and propyl gallate (FIG. 1). It counts as cell-based, Staphylococcus aureus. From the text: FIG. 1 is a graph showing shortening of the time required for killing bacteria by the concomitant use of octyl gallate and propyl gallate against MRSA COL strain.
Assay [2] relates to herpes virus (HSV-1). The assay can be described thus: Virucidal activity against HSV-1 (Tables 14, 15, FIG. 5). It counts as cell-based.
Assay [3] deals with influenza virus B/T/1/05. In words: Time course of virucidal activity at 37° C., infectivity by plaque assay in MDCK cells (FIGS. 6 to 12). In kind it is cell-based. To be noted: influenza B/T/1/05, FIGS. 6 and 8. The protocol: The experiments in FIGS. 7 to 12 were carried out at 37° C. The infectivity of viruses was determined using MDCK cells by the plaque assay method.
This virucidal activity of octyl gallate was reinforced by propyl gallate also against influenza virus A/Aichi (H3N2) in the same manner as above.

Assay [4] deals with Candida albicans ATCC 10231. The assay can be described thus: Time required for killing mold, octyl gallate and propyl gallate (FIG. 2). It counts as cell-based. As to conditions: Candida albicans ATCC 10231, FIG. 2. An excerpt:
FIG. 2 is a graph showing shortening of the time required for killing mold by the concomitant use of octyl gallate and propyl gallate against Candida albicans ATCC 10231.

Assay [5] deals with influenza virus A/Aichi (H3N2). In words: Virucidal activity against influenza virus A/Aichi (H3N2) (Table 16). To be noted: Table 16, NaCitrate 0.90%.
Assay [6] concerns gram-positive and gram-negative bacteria. In words: MIC (minimum growth inhibition concentration), 2-fold serial agar plate dilution on Mueller Hinton II Agar, with concomitant alkyl gallate and salt. As to conditions: n-heptyl, n-hexyl, n-pentyl, n-butyl, isobutyl or n-propyl gallate at a concentration equal to or less than MIC.
Assay [7] has as its system clinical isolate MRSA. In words: Oxacillin MIC against MRSA with concomitant octyl gallate and short-chain alkyl gallate (β-lactam sensitivity, ILSMR effect). It counts as cell-based, Staphylococcus aureus. As to conditions: Staphylococcus aureus, MRSA, 24 h, Isoamyl G 25 μg/mL; Octyl G 1.5625 μg/mL.
For assay [8], the system named is Pseudomonas aeruginosa POA1. In words: Antimicrobial action (MIC) of lauryl gallate with isoamyl gallate or propyl gallate in 3% NaCl. It counts as cell-based. As to conditions: for MIC: Pseudomonas aeruginosa, P. aoruginosa PAO1, MHA (3% NaCl).
Assay [9] relates to influenza virus. The assay can be described thus: Influenza virucidal activity of n-dodecyl gallate with n-hexyl gallate or n-butyl gallate (FIG. 3). In kind it is cell-based. From the text: FIG. 3 is a graph showing reinforcement of the influenza virucidal activity of n-dodecyl gallate by n-hexyl gallate and n-butyl gallate. The abscissa axis indicates the concentrations of n-dodecyl gallate.
The open circle in FIG. 3 indicates an influenza virucidal effect of dodecyl gallate alone.

SMILES strings stand for the structures. ≈ marks a conversion by molar mass, not a printed value.

For the compound `CCCOC(=O)c1cc(O)c(O)c(O)c1` [propyl gallate], the bactericidal activity alone result in assay [1] is reported as “low”. Moreover, the No of plaques worked out at 0 in assay [2] (Table 14, octyl gallate 0, propyl gallate 300 mg/L, J1816 90 mg/L, Na3citrate 0.90%); 0 in assay [2] (Table 14, propyl gallate 100 mg/L, J1816 30 mg/L, Na3citrate 0.90%); 0 in [2] (Table 14, propyl gallate 200 mg/L, J1816 60 mg/L, Na3citrate 0.90%); 0 in assay [2] (Table 14, propyl gallate 300 mg/L, J1816 90 mg/L, Na3citrate 0.90%); 0 in assay [2] (Table 14, propyl gallate 400 mg/L, J1816 120 mg/L, Na3citrate 0.90%); 0 in assay [2] (Table 14, propyl gallate 500 mg/L, J1816 150 mg/L, Na3citrate 0.90%). The No of plaques in assay [2] (Table 15, octyl gallate 0, propyl gallate 300 mg/L, J1816 0, NaCitrate 0.90%) came out at 137; in [2] (Table 15, propyl gallate 100 mg/L, J1816 0, NaCitrate 0.90%), 192; in assay [2] (Table 15, propyl gallate 200 mg/L, J1816 0, NaCitrate 0.90%) it was 139; in assay [2] (Table 15, propyl gallate 300 mg/L, J1816 0, NaCitrate 0.90%) it was 162; in assay [2] (Table 15, propyl gallate 400 mg/L, J1816 0, NaCitrate 0.90%), 102; in assay [2] (Table 15, propyl gallate 500 mg/L, J1816 0, NaCitrate 0.90%), 130. In addition, the No of plaques in assay [5] (octyl gallate 0, propyl gallate 300 mg/L, J1816 90 mg/L) was 52; in assay [5] (propyl gallate 100 mg/L, J1816 30 mg/L), 84; in assay [5] (propyl gallate 200 mg/L, J1816 60 mg/L) it was 87; in [5] (propyl gallate 300 mg/L, J1816 90 mg/L), 53; in assay [5] (propyl gallate 400 mg/L, J1816 120 mg/L) it was 47; in [5] (propyl gallate 500 mg/L, J1816 150 mg/L) it was 42. The virucidal activity alone result in [3] is given as “low”. Besides, the fungicidal activity alone result in [4] is on record as “low”.
As to `CCCCCCCCCOC(=O)c1cc(O)c(O)c(O)c1` [n-nonyl gallate], the “change of MIC value by addition of shorter-chain alkyl gallate” value (from here on “change of MIC value”) in assay [6] was “decreased”.
Take `CCCCCCCCCCCOC(=O)c1cc(O)c(O)c(O)c1` [n-undecyl gallate]: the “change of MIC value” value in assay [6] was “decreased”.
As for `Cc1onc(-c2ccccc2)c1C(=O)N[C@@H]1C(=O)N2[C@@H]1SC(C)(C)[C@@H]2C(=O)O` [oxacillin, reference compound], the minimal inhibitory concentration (MIC) in assay [7] came out at 0.125 µg/mL.
Turning to `CCCCCCCCCCCCOC(=O)c1cc(O)c(O)c(O)c1` [dodecyl gallate, n-dodecyl gallate], in assay [6], the “change of MIC value” value is given as “decreased”. Further, the minimum inhibitory concentration (MIC) in assay [8] (PAO1, 24 h, concomitant none, 24 h) came to 15.6 µg/mL (≈ 46.2 µM); in [8] (PAO1, 48 h, concomitant none, 48 h), 31.2 µg/mL (≈ 92.3 µM); in [8] (PAO1, 48 h, isoamyl gallate 50 μg/mL, 48 h), 3.91 µg/mL (≈ 11.5 µM); in [8] (PAO1, 48 h, isoamyl gallate 75 μg/mL, 48 h), 0.977 µg/mL (≈ 2.89 µM); in assay [8] (PAO1, 48 h, propyl gallate 75 μg/mL, 48 h), 0.488 µg/mL (≈ 1.44 µM). In [8] (isoamyl gallate or propyl gallate in the presence of 3% NaCl (Table 6)), the “antimicrobial action of lauryl gallate” value is on record as “reinforced”. In addition, the “virucidal effect of dodecyl gallate” value in assay [9] (addition of butyl gallate at a concentration without virucidal effect) is on record as “reinforced markedly”. The “dodecyl gallate concentration at which no survivor was observed” value in [9] (coexistence of 100 μg/ml of hexyl gallate) worked out at 20 µg/mL.
For `CCCCCCCCCCOC(=O)c1cc(O)c(O)c(O)c1` [n-decyl gallate], the “change of MIC value” value in assay [6] is listed as “decreased”.

One may read the MIC as the lowest concentration found to suppress growth.
